# Like-named read-outs stand apart in the source and are kept apart here.
# Legend:
# [1] = biological target: T1, progesterone receptor (Homo sapiens, UniProt P06401); assay: Progesterone receptor binding test; conditions: for Progesterone receptor (PR) Competition factor: CF 1 = affinity of progesterone, CF >1 lower affinity, <1 higher affinity; for CF PR/CF MR: ratio of competition factors CF(PR) and CF(MR)
# T1 construct: made in house; host or cells: Hi5 insect cells (cytosol)
# T1 sequence (P06401 1-933): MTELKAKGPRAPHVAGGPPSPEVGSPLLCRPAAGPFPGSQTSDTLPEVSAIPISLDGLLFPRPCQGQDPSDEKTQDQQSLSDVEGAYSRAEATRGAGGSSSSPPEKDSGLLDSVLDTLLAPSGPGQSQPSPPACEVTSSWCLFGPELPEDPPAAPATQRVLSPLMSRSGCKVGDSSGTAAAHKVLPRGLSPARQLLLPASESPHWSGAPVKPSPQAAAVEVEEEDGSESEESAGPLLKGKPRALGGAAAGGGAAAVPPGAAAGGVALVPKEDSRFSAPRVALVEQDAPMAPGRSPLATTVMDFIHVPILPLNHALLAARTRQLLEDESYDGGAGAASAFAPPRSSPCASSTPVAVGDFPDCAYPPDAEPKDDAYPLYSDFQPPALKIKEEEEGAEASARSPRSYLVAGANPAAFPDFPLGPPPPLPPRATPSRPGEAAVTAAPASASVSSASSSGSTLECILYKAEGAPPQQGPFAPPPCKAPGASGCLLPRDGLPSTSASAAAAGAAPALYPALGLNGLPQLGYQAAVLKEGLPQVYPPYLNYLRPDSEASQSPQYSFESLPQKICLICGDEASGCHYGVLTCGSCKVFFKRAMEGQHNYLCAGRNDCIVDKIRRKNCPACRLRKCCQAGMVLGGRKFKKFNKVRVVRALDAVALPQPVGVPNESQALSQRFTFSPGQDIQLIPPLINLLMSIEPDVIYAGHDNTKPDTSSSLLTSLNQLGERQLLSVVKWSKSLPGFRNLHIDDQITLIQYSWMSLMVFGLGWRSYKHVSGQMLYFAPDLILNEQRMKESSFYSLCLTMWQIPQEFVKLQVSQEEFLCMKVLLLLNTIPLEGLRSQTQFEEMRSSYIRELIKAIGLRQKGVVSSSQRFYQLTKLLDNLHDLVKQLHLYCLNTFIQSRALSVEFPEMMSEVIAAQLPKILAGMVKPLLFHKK
# Description: 1. Progesterone Receptor Binding Test:
# (§1) Using cytosol from progesterone receptor-expressing insect cells (Hi5), competitive binding to the progesterone receptor was determined from the ability to displace ^3H-progesterone as reference substance from the receptor.
# [2] = biological target: T2, mineralocorticoid receptor (Homo sapiens, UniProt P08235); assay: Mineralocorticoid receptor binding test; parameters: made in house; host or cells: Hi5 insect cells (cytosol); conditions: reference substance 3H-aldosterone, cytosol from MR-expressing insect cells (Hi5)
# T2 sequence (P08235 1-984): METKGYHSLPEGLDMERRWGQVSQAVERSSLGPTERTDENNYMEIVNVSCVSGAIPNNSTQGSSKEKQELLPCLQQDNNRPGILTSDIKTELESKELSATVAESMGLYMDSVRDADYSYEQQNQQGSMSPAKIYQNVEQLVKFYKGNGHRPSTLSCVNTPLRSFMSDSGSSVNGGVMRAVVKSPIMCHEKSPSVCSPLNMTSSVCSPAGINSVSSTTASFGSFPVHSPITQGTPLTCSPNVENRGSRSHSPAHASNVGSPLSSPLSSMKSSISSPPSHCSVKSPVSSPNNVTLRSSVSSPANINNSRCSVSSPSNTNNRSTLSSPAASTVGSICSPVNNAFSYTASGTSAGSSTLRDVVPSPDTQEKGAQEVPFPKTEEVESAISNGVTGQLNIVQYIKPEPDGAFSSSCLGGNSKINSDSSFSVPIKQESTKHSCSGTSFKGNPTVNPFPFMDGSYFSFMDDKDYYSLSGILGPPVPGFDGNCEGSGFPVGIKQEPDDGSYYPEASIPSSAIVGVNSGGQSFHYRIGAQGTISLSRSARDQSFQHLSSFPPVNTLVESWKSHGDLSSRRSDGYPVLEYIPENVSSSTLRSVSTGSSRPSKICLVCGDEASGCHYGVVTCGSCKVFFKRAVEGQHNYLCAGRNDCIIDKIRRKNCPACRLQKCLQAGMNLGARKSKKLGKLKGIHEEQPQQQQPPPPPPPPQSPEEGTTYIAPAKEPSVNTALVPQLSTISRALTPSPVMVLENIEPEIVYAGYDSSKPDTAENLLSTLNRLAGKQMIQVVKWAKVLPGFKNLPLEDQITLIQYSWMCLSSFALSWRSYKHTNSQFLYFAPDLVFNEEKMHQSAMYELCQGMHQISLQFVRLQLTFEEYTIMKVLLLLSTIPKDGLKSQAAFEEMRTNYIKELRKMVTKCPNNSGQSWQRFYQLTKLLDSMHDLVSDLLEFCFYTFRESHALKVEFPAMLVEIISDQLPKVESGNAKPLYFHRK
# Description: as §1
# 2. Mineralocorticoid Receptor Binding Test:
# The test was carried out as in 1, with the following modifications: cytosol from mineralocorticoid receptor-expressing insect cells (Hi5) was used, and the reference substance was ^3H-aldosterone.
# [3] = displacement of 3H-progesterone, cytosol from PR-expressing insect cells (Hi5), read-out: Progesterone receptor (PR) IC50
Structure (SMILES),Progesterone receptor (PR) Competition factor [1],"IC50 [1, 3]",CF PR/CF MR [1],Mineralocorticoid receptor (MR) Competition factor [2],IC50 [1]
"CC[C@]12CC[C@H]3[C@@H]([C@H]4C[C@H]4C4=C(Cl)C(=O)CC[C@@H]43)[C@@H]1[C@@H]1C[C@@H]1[C@@]21C=CC(=O)O1 [Example 8, 6β,7β;15β,16β-Bismethylene-4-chloro-17β-hydroxy-18-methyl-19-nor-17α-pregna-4,20(Z)-dien-3-one-21-carboxylic acid γ-lactone]",31.12,740 nM,1.07,29.0,
"CC[C@]12CC[C@H]3[C@@H](CCC4=CC(=O)CC[C@@H]43)[C@@H]1[C@@H]1C[C@@H]1[C@@]21C=CC(=O)O1 [Example 9, 17β-Hydroxy-18-methyl-15β,16β-methylene-19-nor-17α-pregna-4,20(Z) dien-3-one-21-carboxylic acid γ-lactone]",1.65,,1.50,1.1,78.5 nM
"CC[C@]12CC[C@H]3[C@@H](C[C@@H](CO)C4=CC(=O)CC[C@@H]43)[C@@H]1[C@@H]1C[C@@H]1[C@@]21C=CC(=O)O1 [Example 10, 17β-Hydroxy-6β-hydroxymethylene-18-methyl-15β,16β-methylene-19-nor-17α-pregna-4,20(Z)-dien-3-one-21-carboxylic acid γ-lactone]",4000.00,,inactive,2.7,
"C[C@]12CC[C@H]3[C@@H](CCC4=CC(=O)CC[C@@H]43)[C@@H]1[C@H]1C[C@H]1[C@@]21C=CC(=O)O1 [Example 12, 17β-Hydroxy-15α,16α-methylene-19-nor-17α-pregna-4,20(Z)-dien-3-one-21-carboxylic acid γ-lactone]",1.50,,0.52,2.9,49 nM
"C[C@]12CC[C@H]3[C@@H](C=CC4=CC(=O)CC[C@@H]43)[C@@H]1[C@H]1C[C@H]1[C@@]21C=CC(=O)O1 [Example 13, 17β-Hydroxy-15α,16α-methylene-19-nor-17α-pregna-4,6,20(Z)-trien-3-one-21-carboxylic acid γ-lactone]",7.89,190 nM,4.93,1.6,
"C[C@@H]1CC2=CC(=O)CC[C@@H]2[C@H]2CC[C@@]3(C)[C@@H]([C@H]4C[C@H]4[C@@]34C=CC(=O)O4)[C@@H]21 [Example 14A, 17β-Hydroxy-7α-methyl-15α,16α-methylene-19-nor-17α-pregna-4,20(Z)-dien-3-one-21-carboxylic acid γ-lactone]",2.04,,1.57,1.3,49 nM
"CC[C@@H]1CC2=CC(=O)CC[C@@H]2[C@H]2CC[C@@]3(C)[C@@H]([C@H]4C[C@H]4[C@@]34C=CC(=O)O4)[C@H]12 [Example 15A, 17β-Hydroxy-7α-ethyl-15α,16α-methylene-19-nor-17α-pregna-4,20(Z)-dien-3-one-21-carboxylic acid γ-lactone]",8.36,,10.45,0.8,200 nM
"C=C[C@@H]1CC2=CC(=O)CC[C@@H]2[C@H]2CC[C@@]3(C)[C@@H]([C@H]4C[C@H]4[C@@]34C=CC(=O)O4)[C@@H]21 [Example 16A, 17β-Hydroxy-7α-vinyl-15α,16α-methylene-19-nor-17α-pregna-4;20(Z)-dien-3-one-21-carboxylic acid γ-lactone]",3.76,,1.88,2.0,85 nM
"C[C@]12CC[C@H]3[C@H]([C@@H]1[C@H]1C[C@H]1[C@@]21C=CC(=O)O1)[C@H](C1CC1)CC1=CC(=O)CC[C@@H]13 [Example 17A, 17β-Hydroxy-7α-cyclopropyl-15α,16α-methylene-19-nor-17α-pregna-4,20(Z)-dien-3-one-21-carboxylic acid γ-lactone]",12.24,,4.71,2.6,280 nM
"C[C@]12CC[C@H]3[C@@H](CCC4=C(Cl)C(=O)CC[C@@H]43)[C@@H]1[C@H]1C[C@H]1[C@@]21C=CC(=O)O1 [Example 18, 4-Chloro-17β-hydroxy-15α,16α-methylene-19-nor-17α-pregna-4,20(Z)-dien-3-one-21-carboxylic acid γ-lactone]",17.24,,0.49,35.0,400 nM
"C[C@]12CC[C@H]3[C@@H](CCC4=CC(=O)CC[C@@H]43)[C@@H]1[C@@H]1C[C@@H]1[C@@]21C=CC(=O)O1 [Example 19, 17β-Hydroxy-15β,16β-methylene-19-nor-17α-pregna-4,20(Z)-dien-3-one-21-carboxylic acid γ-lactone]",1.70,,0.01,187.0,25 nM
"C[C@]12CC[C@H]3[C@@H](CC4(CC4)C4=CC(=O)CC[C@@H]43)[C@@H]1[C@@H]1C[C@@H]1[C@@]21C=CC(=O)O1 [Example 22, 6,6-(1,2-Ethanediyl)-17β-hydroxy-15β,16β-methylene-19-nor-17α-pregna-4,20(Z)dien-3-one-21-carboxylic acid γ-lactone]",1.04,,1.30,0.8,30 nM
"C[C@@H]1CC2=CC(=O)CC[C@@H]2[C@H]2CC[C@@]3(C)[C@@H]([C@@H]4C[C@@H]4[C@@]34C=CC(=O)O4)[C@@H]21 [Example 23A, 17β-Hydroxy-7α-methyl-15β,16β-methylene-19-nor-17α-pregna-4,20(2)-dien-3-one-21-carboxylic acid γ-lactone]",3.79,,1.99,1.9,120 nM

# Reference: patent US20110015162A1, “15,16-Methylene-17-hydroxy-19-nor-21-carboxylic acid-steroid Y-lactone derivative, use thereof and medicinal products containing the derivative” (Bayer Schering Pharma Aktiengesellschaft, priority 2007, published 2011)
